Values of other authors, collected in patent US20260216071A1, “NANOPARTICULATE FORMULATION” (NEWIMMUNE II, LLC, priority 2022, published 2026).

absorption following oral administration: well absorbed
Structure (SMILES): CCCCc1nc(Cl)c(CO)n1Cc1ccc(-c2ccccc2-c2nn[nH]n2)cc1 [Losartan, (2-butyl-4-chloro-1-{[2′-(1H-tetrazol-5-yl)biphenyl-4-yl]methyl}-1H-imidazol-5-yl) methanol]
